# Assays:
# [1] = tested on: P. aeruginosa strain 6077; assay: P. aeruginosa thermal injury model; assay type: in vivo, CF-1 mice; details: 15 and 5 mg/kg; versus antibody-treated control; FIG. 8E
# Method: FIG. 8 (A-G): Anti-Psl monoclonal antibodies Cam-003 and WapR-004 are active in a P. aeruginosa keratitis model and thermal injury model. Mice were treated with a control IgG1 antibody or Cam-003 at 45 mg/kg (A, B) or 15 mg/kg (C, D) or PBS or a control IgG1 antibody or Cam-003 at 45 mg/kg or WapR-004 at 45 mg/kg or 15 mg/kg or 5 mg/kg (F, G) 24 hours prior to infection with 6077 (O11-cytotoxic—2×10^6 CFU). Immediately before infection, three 1 mm scratches were made on the left cornea of each animal followed by topical application of P. aeruginosa in a 5 μl inoculum. 24 hours after infection, the corneal pathology scores were calculated followed by removal of the eye for determination of viable CFU. Differences in pathology scores and viable CFU were determined by the Mann-Whitney U-test. (A) P=0.0001, (B) P<0.0001, (C) P=0.0003, (D) P=0.0015. (F) and (G) Cam-003 (45 mg/kg) vs. WapR-004 (45 mg/kg): P=0.018; Cam-003 (45 mg/kg) vs. WapR-004 (15 mg/kg): P=0.0025; WapR-004 (45 mg/kg) vs. WapR-004 (15 mg/kg): P=0.1331; WapR-004 (5 mg/kg) vs. Ctrl: P<0.0001. Results are representative of five independent experiments. (E) Survival analysis from Cam-003 and R347 treated CF-1 mice in a P. aeruginosa thermal injury model after 6077 infection (2×10^5 CFU) (log-rank: R347 vs. Cam-003 15 mg/kg, P=0.0094; R347 vs. Cam-003 5 mg/kg, P=0.0017). […]
# [2] = tested on: P. aeruginosa strains PAO1, 33356, 6294, 6077, 6206; assay: Acute pneumonia model, organ burden; assay type: in vivo, BALB/c mice
# Method: Antibodies or PBS were administered 24 hours before infection in each model. P. aeruginosa acute pneumonia, keratitis, and thermal injury infection models were performed as described (DiGiandomenico, A., et al., Proc Natl Acad Sci USA 104, 4624-4629 (2007)), with modifications. In the acute pneumonia model, BALB/c mice (The Jackson Laboratory) were infected with P. aeruginosa strains suspended in a 0.05 ml inoculum. In the thermal injury model, CF-1 mice (Charles River) received a 10% total body surface area burn with a metal brand heated to 92° C. for 10 seconds. Animals were infected subcutaneously with P. aeruginosa strain 6077 at the indicated dose. For organ burden experiments, acute pneumonia was induced in mice followed by harvesting of lungs, spleens, and kidneys 24 hours post-infection for determination of CFU.
# [3] = tested on: luminescent P. aeruginosa serogroup 05 strain (PAO1.lux); assay: Opsonophagocytosis killing (OPK) assay, PAO1.lux; assay type: cell-based, Pseudomonas aeruginosa
# Method: (§1) This example describes the evaluation of prioritized human IgG1 antibodies to promote OPK of P. aeruginosa. […] OPK assays were performed as described in (DiGiandomenico, A., et al., Infect Immun 72, 7012-7021 (2004)), with modifications. Briefly, assays were performed in 96-well plates using 0.025 ml of each OPK component; P. aeruginosa strains; diluted baby rabbit serum; differentiated HL-60 cells; and monoclonal antibody. In some OPK assays, luminescent P. aeruginosa strains, which were constructed as described (Choi, K. H., et al., Nat Methods 2, 443-448 (2005)), were used. Luminescent OPK assays were performed as described above but with determination of relative luciferase units (RLUs) using a Perkin Elmer ENVISION Multilabel plate reader (Perkin Elmer).
# This example describes two series of experiments evaluating the ability of PMB-mAb conjugates to promote OPK of P. aeruginosa. In the first experiments (FIGS. 15A-B), conjugate-mediated OPK activity by human HL-60 neutrophil cell line in the presence of rabbit complement was evaluated using P. aeruginosa strains expressing bacterial luciferase as described in Example 2. R347 was used as a negative control in these experiments. […] In the second series of experiments, reduction in luminescence following 2 h incubation relative to control lacking mAb was used to determine % killing.
# [4] = tested on: P. aeruginosa strain 6294; assay: P. aeruginosa sepsis model; assay type: in vivo, C57Bl/6 mice
# Method: C57Bl/6 mice (10 per group) were dosed with mAb or PMB-mAb conjugates i.p (10, 1 and 0.1 mg/kg) 6 h prior to i.p. challenge with LD80-100 dose of P. aeruginosa strain 6294 (4E7 CFU). Data from two studies was combined in this analysis. Survival was monitored over 72 h. Combined results of two studies are shown in FIGS. 21A-C: Most control mice dosed with A7 or buffer died by 24 h. […] Conversely, the conjugates were less protective than CAM-003 at the low dose of 0.1 mg/kg, and protective activity correlated with in vitro OPK activity of the conjugates (WT>SM>DM>TM).
# [5] = tested on: P. aeruginosa strain 9882-80 (O11); assay: OPK assay, strain 9882-80.lux; assay type: cell-based, Pseudomonas aeruginosa; details: strain 9882-80.lux (O11); FIG. 2B
# Method: as §1
# The ability of the WapR-004 and Cam-003 antibodies to mediate OPK activity against another clinically relevant O-antigen serotype strain, 9882-80.lux, was evaluated.
substance,measurement,setting,value
"Cam-003: human IgG1 anti-Psl monoclonal antibody, VH SEQ ID NO: 1 and VL SEQ ID NO: 2",protection (survival),[1],significant protection
same,dissemination to the spleen and kidneys,"[2]; PAO1, 6294 and 6077, FIGS. 7A, 7C, 7D",marked effect in reducing dissemination to the spleen and kidneys
same,lung burden (viable CFU),"[2]; PAO1, 33356, 6294, 6077, 24 hours post-infection, FIGS. 7A-D",effective at reducing P. aeruginosa lung burden against all four strains tested
same,"lung burden, dose dependence","[2]; cytotoxic strain 6077, FIG. 7D",the low dose was as effective as the higher dose
same,OPK EC50,[3]; FIG. 9A,0.06 µg/mL
same,OPK activity (concentration dependent killing),"[3]; human IgG1 antibodies, differentiated HL-60 cells, baby rabbit serum, FIG. 2A",superior OPK activity
same,dose relation of protective activity,"[4]; 10, 1 and 0.1 mg/kg",inversely correlated with dose
same,protection,"[4]; 10, 1 and 0.1 mg/kg i.p. 6 h prior to i.p. challenge, survival over 72 h, FIGS. 21A-C",50-90%
same,OPK activity,[5],OPK activity extends to strain 9882-80

# — patent publication US10370436B2, “Anti-pseudomonas Psl binding molecules and uses thereof” (priority 2011, dated 2019)
